Assay results as given in patent US11000033B2, “Ketone or oxime compound, and herbicide” (NISSAN CHEMICAL CORPORATION, priority 2014, dated 2021).

How the values were obtained:
Type in all cases: in vivo
[1] = test system: Echinochloa crus-galli var. crus-galli; experiment: Test Example 5: herbicidal effect by foliage application, plastic box (symbol H); conditions: 320 g/ha, 3 weeks after application
In short: (§1)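 Sowing in sterilized diluvial soil, 14 days' greenhouse growth at 25° C. to 30° C., then uniform small-sprayer foliar application of aqueous emulsion dilution; plants scored three weeks afterwards.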

wheat = experiment: Test Example 4: effect on crop by soil treatment (symbol e); conditions: application herbicide amount 320 g/ha
In short: (§2)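 Seeds were sown in spots on sterilized diluvial soil in a plastic box and covered with about 1.5 cm of soil. Plants were then grown in a greenhouse at 25° C. to 30° C.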

Lolium multiflorum Lam. [2] = experiment: Test Example 5: herbicidal effect by foliage application, plastic box (symbol K); conditions: 320 g/ha, 3 weeks after application
In short: as §1

transplanted rice plant = experiment: Test Example 1: effect on crop, application before weed generation in submerged conditions (symbol a); conditions: application herbicide amount 320 g/ha
In short: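 Alluvial soil pots flooded to 4 cm water, sown with Echinochloa oryzacola, Scirpus juncoides and Monochoria vaginalis, then transplanted with 2.5 leaf stage rice seedlings; pre-emergence application. Greenhouse 25° C. to 30° C.; scored 0–5 by herbicidal ratio 3 weeks after application.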

Abutilon theophrasti = experiment: Test Example 4: herbicidal effect by soil treatment (symbol M); conditions: application herbicide amount 320 g/ha
In short: (§3)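 Seeds were sown in sterilized diluvial soil, covered with about 1.5 cm of soil, and the soil surface was sprayed with a water-diluted emulsion of the compound at a predetermined rate. Plants grew in a greenhouse at 25° C. to 30° C.; effects were scored visually 3 weeks after application.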

soybean [3] = experiment: Test Example 5: effect on crop by foliage application, plastic box (symbol d); conditions: 320 g/ha, 3 weeks after application
In short: (§4)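 Diluvial soil, sterilized and boxed (21 × 13 × 7 cm), received spot-sown seed covered by about 1.5 cm soil; plants were then greenhouse-grown at 25–30° C.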

Monochoria vaginalis = experiment: Test Example 2: herbicidal activity, application during weed generation in submerged conditions (symbol C); conditions: Table 23; application herbicide amount 320 g/ha; grade 0-5 by criteria of Test Example 1
In short: (§5)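 Flooded-soil post-emergence test: emulsion of compound, water-diluted to target rate, applied to paddy water surface at 1–2 leaf stage of mixed-sown weeds (alluvial soil, 4 cm water, 25–30° C. greenhouse); visual rating 3 weeks after application.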

beet = experiment: Test Example 4: effect on crop by soil treatment (symbol f); conditions: application herbicide amount 320 g/ha
In short: as §2

corn = experiment: Test Example 5: effect on crop by foliage application, plastic box (symbol c); conditions: 320 g/ha, 3 weeks after application
In short: as §4

rapeseed = experiment: Test Example 5: effect on crop by foliage application, plastic box (symbol g); conditions: 320 g/ha, 3 weeks after application
In short: as §4

Scirpus juncoides = experiment: Test Example 2: herbicidal activity, application during weed generation in submerged conditions (symbol B); conditions: Table 23; application herbicide amount 320 g/ha; grade 0-5 by criteria of Test Example 1
In short: as §5

Digitaria ciliaris = experiment: Test Example 5: herbicidal effect by foliage application, plastic box (symbol F); conditions: 320 g/ha, 3 weeks after application
In short: as §1

rice = experiment: Test Example 4: effect on crop by soil treatment (symbol b); conditions: application herbicide amount 320 g/ha
In short: as §2

Avena fatua = experiment: Test Example 4: herbicidal effect by soil treatment (symbol I); conditions: application herbicide amount 320 g/ha
In short: as §3

soybean [4] = experiment: Test Example 4: effect on crop by soil treatment (symbol d); conditions: application herbicide amount 320 g/ha
In short: as §2

Lolium multiflorum Lam. [5] = experiment: Test Example 4: herbicidal effect by soil treatment (symbol K); conditions: application herbicide amount 320 g/ha
In short: as §3

Veronica persica = experiment: Test Example 5: herbicidal effect by foliage application, plastic box (symbol R); conditions: 320 g/ha, 3 weeks after application
In short: as §1

Amaranthus retroflexus = experiment: Test Example 5: herbicidal effect by foliage application, plastic box (symbol N); conditions: 320 g/ha, 3 weeks after application
In short: as §1

[6] = test system: Echinochloa crus-galli var. crus-galli; experiment: Test Example 4: herbicidal effect by soil treatment (symbol H); conditions: application herbicide amount 320 g/ha
In short: as §3

SMILES	H: Echinochloa crus-galli var. crus-galli, herbicidal effect grade [1]	e (wheat) effect on crop grade (wheat)	K: Lolium multiflorum Lam., herbicidal effect grade (Lolium multiflorum Lam. [2])	Effect grade on crop, a: transplanted rice plant (transplanted rice plant)	M (Abutilon theophrasti) herbicidal effect grade (Abutilon theophrasti)	d: soybean, effect on crop grade (soybean [3])	Herbicidal effect grade, C: Monochoria vaginalis (Monochoria vaginalis)	f (beet) effect on crop grade (beet)	c: corn, effect on crop grade (corn)	g: rapeseed, effect on crop grade (rapeseed)	Herbicidal effect grade, B: Scirpus juncoides (Scirpus juncoides)	F: Digitaria ciliaris, herbicidal effect grade (Digitaria ciliaris)	b (directly sowed rice plant) effect on crop grade (rice)	I (Avena fatua) herbicidal effect grade (Avena fatua)	d (soybean) effect on crop grade (soybean [4])	K (Lolium multiflorum Lam.) herbicidal effect grade (Lolium multiflorum Lam. [5])	R: Veronica persica, herbicidal effect grade (Veronica persica)	N: Amaranthus retroflexus, herbicidal effect grade (Amaranthus retroflexus)	H (Echinochloa crus-galli var. crus-galli) herbicidal effect grade [6]
CCC(CC1CC(O)=C(c2c(C)cc(C)cc2C)C1=O)=NOC (stereo not shown) [1-038]	5 (Herbicidal ratio of 90% or more (almost completely withered))	3 (Herbicidal ratio of 40% or higher and lower than 70%)	5 (Herbicidal ratio of 90% or more (almost completely withered))	5 (Herbicidal ratio of 90% or more (almost completely withered))	4 (Herbicidal ratio of 70% or higher and lower than 90%)	4 (Herbicidal ratio of 70% or higher and lower than 90%)	4 (Herbicidal ratio of 70% or higher and lower than 90%)	0 (Herbicidal ratio of 5% or lower (almost no effect))	4 (Herbicidal ratio of 70% or higher and lower than 90%)	4 (Herbicidal ratio of 70% or higher and lower than 90%)	5 (Herbicidal ratio of 90% or more (almost completely withered))	5 (Herbicidal ratio of 90% or more (almost completely withered))	5 (Herbicidal ratio of 90% or more (almost completely withered))	0 (Herbicidal ratio of 5% or lower (almost no effect))	1 (Herbicidal ratio of 5% or higher and lower than 20%)	5 (Herbicidal ratio of 90% or more (almost completely withered))	1 (Herbicidal ratio of 5% or higher and lower than 20%)	2 (Herbicidal ratio of 20% or higher and lower than 40%)	5 (Herbicidal ratio of 90% or more (almost completely withered))
COCC(CC1CC(O)=C(c2c(C)cc(C)cc2C)C1=O)=NOC (stereo not shown) [1-040]	5 (Herbicidal ratio of 90% or more (almost completely withered))	0 (Herbicidal ratio of 5% or lower (almost no effect))	5 (Herbicidal ratio of 90% or more (almost completely withered))	4 (Herbicidal ratio of 70% or higher and lower than 90%)	0 (Herbicidal ratio of 5% or lower (almost no effect))	0 (Herbicidal ratio of 5% or lower (almost no effect))	0 (Herbicidal ratio of 5% or lower (almost no effect))	0 (Herbicidal ratio of 5% or lower (almost no effect))	3 (Herbicidal ratio of 40% or higher and lower than 70%)	4 (Herbicidal ratio of 70% or higher and lower than 90%)	0 (Herbicidal ratio of 5% or lower (almost no effect))	4 (Herbicidal ratio of 70% or higher and lower than 90%)	5 (Herbicidal ratio of 90% or more (almost completely withered))	3 (Herbicidal ratio of 40% or higher and lower than 70%)	0 (Herbicidal ratio of 5% or lower (almost no effect))	4 (Herbicidal ratio of 70% or higher and lower than 90%)	0 (Herbicidal ratio of 5% or lower (almost no effect))	0 (Herbicidal ratio of 5% or lower (almost no effect))	5 (Herbicidal ratio of 90% or more (almost completely withered))
CON=C(C)CC1CC(OC(=O)C(C)Cl)=C(c2c(C)cc(C)cc2C)C1=O (stereo not shown) [1-042]	5 (Herbicidal ratio of 90% or more (almost completely withered))	1 (Herbicidal ratio of 5% or higher and lower than 20%)	5 (Herbicidal ratio of 90% or more (almost completely withered))	5 (Herbicidal ratio of 90% or more (almost completely withered))	5 (Herbicidal ratio of 90% or more (almost completely withered))	3 (Herbicidal ratio of 40% or higher and lower than 70%)	3 (Herbicidal ratio of 40% or higher and lower than 70%)	0 (Herbicidal ratio of 5% or lower (almost no effect))	4 (Herbicidal ratio of 70% or higher and lower than 90%)	4 (Herbicidal ratio of 70% or higher and lower than 90%)	4 (Herbicidal ratio of 70% or higher and lower than 90%)	5 (Herbicidal ratio of 90% or more (almost completely withered))	5 (Herbicidal ratio of 90% or more (almost completely withered))	3 (Herbicidal ratio of 40% or higher and lower than 70%)	0 (Herbicidal ratio of 5% or lower (almost no effect))	5 (Herbicidal ratio of 90% or more (almost completely withered))	1 (Herbicidal ratio of 5% or higher and lower than 20%)	0 (Herbicidal ratio of 5% or lower (almost no effect))	5 (Herbicidal ratio of 90% or more (almost completely withered))
CON=C(C)CC1CC(OC(=O)COc2ccccc2)=C(c2c(C)cc(C)cc2C)C1=O (stereo not shown) [1-043]	5 (Herbicidal ratio of 90% or more (almost completely withered))	4 (Herbicidal ratio of 70% or higher and lower than 90%)	5 (Herbicidal ratio of 90% or more (almost completely withered))	5 (Herbicidal ratio of 90% or more (almost completely withered))	4 (Herbicidal ratio of 70% or higher and lower than 90%)	4 (Herbicidal ratio of 70% or higher and lower than 90%)	3 (Herbicidal ratio of 40% or higher and lower than 70%)	4 (Herbicidal ratio of 70% or higher and lower than 90%)	5 (Herbicidal ratio of 90% or more (almost completely withered))	4 (Herbicidal ratio of 70% or higher and lower than 90%)	5 (Herbicidal ratio of 90% or more (almost completely withered))	5 (Herbicidal ratio of 90% or more (almost completely withered))	5 (Herbicidal ratio of 90% or more (almost completely withered))	4 (Herbicidal ratio of 70% or higher and lower than 90%)	1 (Herbicidal ratio of 5% or higher and lower than 20%)	5 (Herbicidal ratio of 90% or more (almost completely withered))	2 (Herbicidal ratio of 20% or higher and lower than 40%)	3 (Herbicidal ratio of 40% or higher and lower than 70%)	5 (Herbicidal ratio of 90% or more (almost completely withered))
